Patent US20200093801A1, “NEW METHODS FOR THE TREATMENT OF MULTIPLE SCLEROSIS” (Novartis AG, priority 2017, published 2020)
“Also recorded” adds a separate entry of the source.

How the values were obtained:
[1] = system: Cuprizone-Induced Demyelination in Mice; test: Cuprizone-induced demyelination in mice, brain histology / immunohistochemistry (169 mg/kg); assay type: in vivo, Mice (C57BL/6J); conditions: 169 mg/kg p.o. qd, 2 weeks after 5 weeks 0.2% cuprizone
Excerpt: Studies described below were approved by the Swiss Cantonal Veterinary Authority of Basel City, Switzerland, under the license number 2711. Mice (C57BL/6J) were commercially purchased from Charles River Laboratories, Germany or obtained from Novartis Pharma AG breeding colonies (8-9 weeks old, females). All the animals were allowed to adapt for 7 days prior the start of the experiment and housed in IVC racks (max. 4 mice/XJ Type cage). The animals were given access to food and water ad libitum. Animals were treated with cuprizone for 5 weeks. Cuprizone (Bis(cyclohexanone)oxaldihydrazone, Sigma-Aldrich) was mixed into rodent food pellets (0.2% w/w) by Provimi Kliba AG, Switzerland. Therapeutic treatment of animals after cuprizone was performed for 2 weeks on normal food with 169 mg/kg of BLZ945, qd, p.o. 10 ml/kg. BLZ945 was prepared in vehicle consisting of 0.5% methylcellulose in water and 0.1% Tween-80. Before killing 3 h after last BLZ945 dosing animals were perfused transcardially by phosphate-buffered saline (PBS), brains isolated and fixed in 4% paraformaldehyde (PFA) for 48 h at 4° C. After fixation brains were processed for paraffin embedding by dehydration through increasing ethanol series. Automated immunohistochemistry of paraffin sections was performed on 3 μm paraffin sections mounted on SuperFrost+ slides and automatically immunostained using the Discovery XT technology (Ventana/Roche Diagnostics). Briefly, sections were deparaffinized, rehydrated, subjected to antigen retrieval by heating with CC1 cell conditioning buffer, incubated for 1-3 hours at room temperature with primary antibody diluted in antibody diluent, incubated with the respective biotinylated secondary antibody diluted in antibody dilution, reacted with DABMab kit and counterstained with Hematoxylin II and Bluing Agent reagent (Ventana/Roche Diagnostics). Slides were washed with soap in hot tap water and rinsed under cold running tap water to remove the soap, then dehydrated and embedded with Pertex. Manual immunofluorescence staining of paraffin sections was performed on 3 μm paraffin sections. They were de-waxed and subjected to antigen retrieval (exception: GST-π) by microwaving for 15-20 minutes at 98° C. in 0.1 M citrate buffer pH 6.0 (quartett 400300692), the jar with slides were cooled to room temperature for 20-25 min and rinsed in 1×TBS (cell signaling 12498S) twice for 3 min. Endogenous peroxidase was quenched with Perox Block (Dako S2023) for 10 min, sections then washed with 1×TBS twice for 3 min and blocking with 10% normal goat serum (Dako X0907) in 1×TBS for 20 min performed. Sections were then incubated without rinsing with primary antibody for 60 min (MBP) or overnight (GST-pi, MOG) at room temperature. Sections were then washed in 1×TBS twice for 3 min and then incubated with secondary antibody for 30 min at room temperature. Sections were then washed with 1×TBS twice for 3 min and incubated with Vectastain ABC Elite Kit (Vector PK6100) for 30 min at room temperature, washed with 1×TBS twice for 3 min, incubated with DAB solution (Dako K3468) for 1-5 min. Sections were finally washed with distilled water twice for 2 min, counterstained with Hematoxylin (Dako S2020) for 3 min, again washed with running tap water for 5 min, dehydrated and embedded in Pertex. […]

microglia = test: Microglia depletion and activation in naive/wildtype mice after 5 days of treatment (Iba1 histology); assay type: in vivo
Description: After fixation brains were processed for paraffin embedding by dehydration through increasing ethanol series. Automated immunohistochemistry of paraffin sections was performed on 3 μm paraffin sections mounted on SuperFrost+slides (Thermo Fisher Scientific) and automatically immunostained using the Discovery XT technology (Ventana, Roche Diagnostics). Sections were deparaffinized, rehydrated, subjected to antigen retrieval by heating with CC1 cell conditioning buffer for 28-68 min according to the antibody, incubated for 1-3 hours according to the antibody at room temperature with primary antibody diluted in antibody diluent (Ventana), incubated with the respective biotinylated secondary antibody diluted in antibody diluent, reacted with DABMab kit and counterstained with Hematoxylin II and Bluing reagent (Ventana). Slides were washed with soap in hot tap water and rinsed under cold running tap water to remove the soap, then dehydrated and embedded with Pertex.
Secondary detection antibodies are: Goat anti-rabbit IgG biotinylated (Jackson ImmunoResearch 111-065-144) 1:1000; Goat anti-rabbit IgG biotinylated (Vector BA-1000) 1:200 or 1:1000
For the quantitative evaluation of microglia/astrocyte numbers based on image analysis from histological stained brain sections, a proprietary image analysis platform (ASTORIA, Automated Stored Image Analysis) was developed based on MS Visual Studio 2010 and many functions from Matrox MIL V9 libraries (Matrox Inc, Quebec, Canada).
For the detection and analysis of soma the following sequence of steps was performed: 1. Slides with brain sections for assessment of (brown) IHC stained microglia (Iba1) or astrocyte (GFAP) were scanned with Aperio's Scanscope at 20× magnification. 2. Ran the in-house developed ImageScope (V12.1.0.5029, Aperio Inc., USA) plug-in for creation and export of 3×8-bit RGB tif image tiles (at 20× magnification) for each section. 3. Image processing (for each tif image): A: Performed color deconvolution on each tif image to obtain brown stained image without blue. B: Segmentation of valid sample (brain tissue) from white background through thresholding, morphological closing, filling of holes, opening and elimination of too small objects, resulting in a binary mask of the valid tissue and sample area for the current image. C: Applied an adaptive thresholding technique for the individual segmentation of soma, based on the average gray value of the blue channel of the color-deconvoluted brown image at sufficiently dark regions (indicative for soma). The computed threshold was used for binarization, and after size filtering yielding the soma mask image (within the valid sample region).
FIG. 10: BLZ945 treatment leads to microglia depletion and microglia activation in a dose-dependent manner. […]

[2] = compared to control (normal food)
[3] = 20 mg/kg p.o. qd, naive/wildtype mice

CNC(=O)c1cc(Oc2ccc3nc(N[C@@H]4CCCC[C@H]4O)sc3c2)ccn1 [BLZ945, 4-(2-((1R,2R)-2-hydroxycyclohexylamino)benzothiazol-6-yloxy)-N-methylpicolinamide]
Iba1+ microglia number compared to control, cortex [1, 2]: lower number of Iba1+ microglia
Iba1+ microglia number compared to control, striatum [1, 2]: lower number of Iba1+ microglia
GFAP-positive astrocytes (stained area), all brain areas ([1]; compared to vehicle): enhances astrocytes; also recorded: even further increases astrocyte numbers; also recorded: substantially higher in cortex and striatum than it is in the corpus callosum
Iba1-positive microglia numbers, all brain areas analyzed (cortex, striatum, corpus callosum) ([1]; compared to vehicle treated animals): reduces microglia numbers; also recorded: significantly reducing this increase compared to vehicle treated animals
GST-π positive mature oligodendrocytes (number of positive cells), cortex ([1]; immunohistochemistry): increases oligodendrocyte numbers; also recorded: did not reach control levels; also recorded: significantly increased after BLZ945 treatment compared to vehicle control
GST-π positive mature oligodendrocytes (number of positive cells), striatum ([1]; immunohistochemistry): increases oligodendrocyte numbers; also recorded: significantly increased after BLZ945 treatment compared to vehicle control; also recorded: did not reach control levels
Myelin basic protein (MBP) stained area, cortex ([1]; immunohistochemistry): enhances remyelination; also recorded: did not reach control levels; also recorded: significantly increased after BLZ945 treatment compared to vehicle control
Myelin basic protein (MBP) stained area, striatum ([1]; immunohistochemistry): enhances remyelination; also recorded: did not reach control levels; also recorded: significantly increased after BLZ945 treatment compared to vehicle control
GST-π positive oligodendrocytes, corpus callosum ([1]; vs cuprizone vehicle): not corpus callosum; also recorded: no difference
Luxol fast blue (LFB) optical density, corpus callosum ([1]; vs cuprizone vehicle): no difference
Myelin oligodendrocyte glycoprotein (MOG) optical density, corpus callosum ([1]; vs cuprizone vehicle): not corpus callosum; also recorded: no difference
Microglia activation (Iba1-positive microglia size normalized to distal microglia processes), cortex (microglia; [3]): only mildly; also recorded: slight increase in the activation status
Microglia depletion (Iba1-positive microglia numbers), cortex (microglia; [3]): no microglia depletion; also recorded: no microglia reduction
Microglia activation (Iba1-positive microglia size normalized to distal microglia processes), cortex (microglia; 60 mg/kg p.o. qd, naive/wildtype mice): strong microglia activation; also recorded: substantially enhanced the morphological activation status; also recorded: altered microglia morphology
Microglia depletion (microglia; 169 mg/kg p.o. qd, naive animals, all brain areas): almost completely depletes microglia; also recorded: near complete microglia depletion
